Results reported in patent US11377442B2, “Small molecule agonists and antagonists of NR2F6 activity” (ZANDER THERAPEUTICS, INC., priority 2016, dated 2022).
Read-outs that look alike come from different tables or passages of the source.

How the values were obtained:
Assay type in all cases: cell-based
NR2F6 = biological target: T1, NR2F6 (Homo sapiens, UniProt P10588); experiment: NR2F6 agonist screening, Firefly signal cmpd/DMSO
T1 construct: expressed in transfected cells; also transient transfection
T1 sequence (P10588 1-404): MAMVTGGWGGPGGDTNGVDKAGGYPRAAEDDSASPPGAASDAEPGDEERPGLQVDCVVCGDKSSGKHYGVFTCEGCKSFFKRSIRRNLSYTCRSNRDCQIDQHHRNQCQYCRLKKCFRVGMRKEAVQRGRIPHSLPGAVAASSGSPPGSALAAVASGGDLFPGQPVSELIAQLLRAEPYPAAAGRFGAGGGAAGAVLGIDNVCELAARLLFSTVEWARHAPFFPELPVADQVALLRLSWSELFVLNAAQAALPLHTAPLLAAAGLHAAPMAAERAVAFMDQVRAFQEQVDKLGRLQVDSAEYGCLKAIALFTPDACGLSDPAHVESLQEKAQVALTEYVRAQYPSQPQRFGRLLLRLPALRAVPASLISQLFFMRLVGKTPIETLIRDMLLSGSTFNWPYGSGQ

Renilla = Renilla signal in NR2F6 agonist screening, cmpd/DMSO; details: Renilla, F4
HEK293 pGL4 = experiment: Firefly_pGL signal, cmpd/DMSO (pGL4 control cells); details: Homo sapiens
NR2F6 LBD = biological target: T2, NR2F6 LBD (Homo sapiens, UniProt P10588); experiment: NR2F6 LBD transient transfection; details: LBD
T2 construct: expressed in transfected cells
T2 sequence (P10588 165-393 limits assumed): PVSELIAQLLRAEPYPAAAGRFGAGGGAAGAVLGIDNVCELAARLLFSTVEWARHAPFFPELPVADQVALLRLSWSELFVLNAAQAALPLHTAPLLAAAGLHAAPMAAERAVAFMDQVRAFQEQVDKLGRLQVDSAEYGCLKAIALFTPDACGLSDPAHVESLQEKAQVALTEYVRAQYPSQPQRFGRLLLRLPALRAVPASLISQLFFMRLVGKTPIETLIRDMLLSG
Description: FIGS. 27A and 27B show NR2F6 and LBD transient transfection, respectively, for Compound D28. Higher concentrations were excluded due to lower signal (tox effect). FIGS. 27C and 27D show NR2F6 and LBD transient transfection at different concentrations for different compounds. 9 compounds were tested on LBD transfected cells (40, 10, 2 and 0.5 μM, 4 replicates). FIGS. 27E and 27F show toxicity of Compound D28. 9 compounds were tested for cytotoxicity on LBD transfected cells (40, 10, 2 and 0.5 μM, 4 replicates). […] Cytotoxicity normalized to DMSO is shown in FIG. 27F (0% cytotoxicity corresponds to DMSO signal, 100%—zero signal).
FIGS. 34A and 34B show NR2F6 LBD transient transfection for Compound E21. 9 compounds were tested on LBD transfected cells (40, 10, 2 and 0.5 μM, 4 replicates). FIGS. 34C and 34D show NR2F6 and LBD transient transfection at different concentrations for different compounds. 9 compounds were tested on LBD transfected cells (40, 10, 2 and 0.5 μM, 4 replicates). […] Cytotoxicity normalized to DMSO is shown in FIG. 34D (0% cytotoxicity corresponds to DMSO signal, 100%—zero signal). All compounds were tested at 5, 10, 25 and 50 uM in duplicates. Dog PBMC (1×10^6 cells/mL) were activated by 10 ng/mL PMA+500 ng/mL ionomycin. Data were normalized to controls with (100%)/without (0%) PMA+ionomycin activation.
FIGS. 39A and 39B show NR2F6 LBD transient transfection for Compound F1. 9 compounds were tested on LBD transfected cells (40, 10, 2 and 0.5 μM, 4 replicates). FIGS. 39C and 39D show toxicity of NR2F6 LBD transient transfection. 9 compounds were tested for cytotoxicity on LBD transfected cells (40, 10, 2 and 0.5 μM, 4 replicates). Tox effect causes lower signal compared to DMSO. Cytotoxicity normalized to DMSO is shown in FIG. 39D (0% cytotoxicity corresponds to DMSO signal, 100%—zero signal).

[1] = read-out: Renilla, F4, cmpd/DMSO (mean)
[2] = 1% FBS, read-out: Renilla, F4, 1% FBS, cmpd/DMSO (mean)
[3] = 10% FBS, read-out: Renilla, F4, 10% FBS, cmpd/DMSO (mean)
[4] = HEK293, 0.5 uM, pGL4, read-out: Firefly pGL4, cmpd/DMSO (mean)
[5] = HEK293, 2 uM, pGL4, read-out: Firefly pGL4, cmpd/DMSO (mean)
[6] = HEK293, 10 uM, pGL4, read-out: Firefly pGL4, cmpd/DMSO (mean)
[7] = HEK293, 40 uM, pGL4, read-out: Firefly pGL4, cmpd/DMSO (mean)
[8] = HEK293, pGL4, 1% FBS, 0.5 uM, read-out: Firefly, pGL4, 1% FBS, cmpd/DMSO (mean)
[9] = HEK293, pGL4, 1% FBS, 2 uM, read-out: Firefly, pGL4, 1% FBS, cmpd/DMSO (mean)
[10] = HEK293, pGL4, 1% FBS, 10 uM, read-out: Firefly, pGL4, 1% FBS, cmpd/DMSO (mean)
[11] = HEK293, pGL4, 1% FBS, 40 uM, read-out: Firefly, pGL4, 1% FBS, cmpd/DMSO (mean)
[12] = HEK293, pGL4, 10% FBS, 0.5 uM, read-out: Firefly, pGL4, 10% FBS, cmpd/DMSO (mean)
[13] = HEK293, pGL4, 10% FBS, 2 uM, read-out: Firefly, pGL4, 10% FBS, cmpd/DMSO (mean)
[14] = HEK293, pGL4, 10% FBS, 10 uM, read-out: Firefly, pGL4, 10% FBS, cmpd/DMSO (mean)
[15] = HEK293, pGL4, 10% FBS, 40 uM, read-out: Firefly, pGL4, 10% FBS, cmpd/DMSO (mean)

O=S1(=O)C[C@H](NCc2ccncc2)[C@@H](S(=O)(=O)c2cccs2)C1 [Compound D108]
Firefly F4, cmpd/DMSO (mean) (NR2F6; 0.5 uM): 1.0
Firefly F4, cmpd/DMSO (mean) (NR2F6; 2 uM): 1.3
Firefly F4, cmpd/DMSO (mean) (NR2F6; 10 uM): 1.3
Firefly F4, cmpd/DMSO (mean) (NR2F6; 40 uM): 1.9
Firefly, F4, 1% FBS, cmpd/DMSO (mean) (NR2F6; 1% FBS, 0.5 uM): 1.2
Firefly, F4, 1% FBS, cmpd/DMSO (mean) (NR2F6; 1% FBS, 2 uM): 1.1
Firefly, F4, 1% FBS, cmpd/DMSO (mean) (NR2F6; 1% FBS, 10 uM): 1.1
Firefly, F4, 1% FBS, cmpd/DMSO (mean) (NR2F6; 1% FBS, 40 uM): 1.8
Firefly, F4, 10% FBS, cmpd/DMSO (mean) (NR2F6; 10% FBS, 0.5 uM): 1.2
Firefly, F4, 10% FBS, cmpd/DMSO (mean) (NR2F6; 10% FBS, 2 uM): 1.0
Firefly, F4, 10% FBS, cmpd/DMSO (mean) (NR2F6; 10% FBS, 10 uM): 1.1
Firefly, F4, 10% FBS, cmpd/DMSO (mean) (NR2F6; 10% FBS, 40 uM): 2.2
fold induction at 0.5 µM (Renilla; [1]): 1
fold induction at 2 µM (Renilla; [1]): 1
fold induction at 10 µM (Renilla; [1]): 1.1
fold induction at 40 µM (Renilla; [1]): 1.2
fold induction at 0.5 µM (Renilla; [2]): 1
fold induction at 2 µM (Renilla; [2]): 1.2
fold induction at 10 µM (Renilla; [2]): 1.1
fold induction at 40 µM (Renilla; [2]): 1.4
fold induction at 0.5 µM (Renilla; [3]): 1
fold induction at 2 µM (Renilla; [3]): 0.9
fold induction at 10 µM (Renilla; [3]): 1
fold induction at 40 µM (Renilla; [3]): 1.4
fold induction at 0.5 µM (HEK293 pGL4; [4]): 0.9
fold induction at 2 µM (HEK293 pGL4; [5]): 1
fold induction at 10 µM (HEK293 pGL4; [6]): 1.2
fold induction at 40 µM (HEK293 pGL4; [7]): 1.5
fold induction at 0.5 µM (HEK293 pGL4; [8]): 1.5
fold induction at 2 µM (HEK293 pGL4; [9]): 1.2
fold induction at 10 µM (HEK293 pGL4; [10]): 1.2
fold induction at 40 µM (HEK293 pGL4; [11]): 1.1
fold induction at 0.5 µM (HEK293 pGL4; [12]): 1.1
fold induction at 2 µM (HEK293 pGL4; [13]): 1.1
fold induction at 10 µM (HEK293 pGL4; [14]): 1.1
fold induction at 40 µM (HEK293 pGL4; [15]): 1.4
Firefly LBD, cmpd/DMSO (mean) (NR2F6 LBD; 0.5 uM): 1.0
Firefly LBD, cmpd/DMSO (mean) (NR2F6 LBD; 2 uM): 1.4
Firefly LBD, cmpd/DMSO (mean) (NR2F6 LBD; 10 uM): 1.3
Firefly LBD, cmpd/DMSO (mean) (NR2F6 LBD; 40 uM): 2.1

CC(C)CCN[C@H]1CS(=O)(=O)C[C@@H]1S(=O)(=O)c1cccs1 [Compound D110]
Firefly F4, cmpd/DMSO (mean) (NR2F6; 0.5 uM): 1.7
Firefly F4, cmpd/DMSO (mean) (NR2F6; 2 uM): 1.9
Firefly F4, cmpd/DMSO (mean) (NR2F6; 10 uM): 3.5
Firefly F4, cmpd/DMSO (mean) (NR2F6; 40 uM): 1.4
F4, Firefly/Renilla for S/B(F4) > 3 (NR2F6; 1% FBS, 10 uM): 2.5
Firefly, F4/pGL4 for S/B(F4) > 3 (NR2F6; 1% FBS, 10 uM): 2.3
F4, Firefly/Renilla for S/B(F4) > 3 (NR2F6; 10% FBS, 40 uM): 2.5
Firefly, F4/pGL4 for S/B(F4) > 3 (NR2F6; 10% FBS, 40 uM): 2.3
Firefly, F4, 1% FBS, cmpd/DMSO (mean) (NR2F6; 1% FBS, 0.5 uM): 0.8
Firefly, F4, 1% FBS, cmpd/DMSO (mean) (NR2F6; 1% FBS, 2 uM): 1.4
Firefly, F4, 1% FBS, cmpd/DMSO (mean) (NR2F6; 1% FBS, 10 uM): 3.8
Firefly, F4, 1% FBS, cmpd/DMSO (mean) (NR2F6; 1% FBS, 40 uM): 0.8
Firefly, F4, 10% FBS, cmpd/DMSO (mean) (NR2F6; 10% FBS, 0.5 uM): 1.3
Firefly, F4, 10% FBS, cmpd/DMSO (mean) (NR2F6; 10% FBS, 2 uM): 1.0
Firefly, F4, 10% FBS, cmpd/DMSO (mean) (NR2F6; 10% FBS, 10 uM): 2.4
Firefly, F4, 10% FBS, cmpd/DMSO (mean) (NR2F6; 10% FBS, 40 uM): 5.9
fold induction at 0.5 µM (Renilla; [1]): 1.1
fold induction at 2 µM (Renilla; [1]): 1.1
fold induction at 10 µM (Renilla; [1]): 1.3
fold induction at 40 µM (Renilla; [1]): 1.4
fold induction at 0.5 µM (Renilla; [2]): 1
fold induction at 2 µM (Renilla; [2]): 1.1
fold induction at 10 µM (Renilla; [2]): 1.5
fold induction at 40 µM (Renilla; [2]): 1.5
fold induction at 0.5 µM (Renilla; [3]): 1
fold induction at 2 µM (Renilla; [3]): 1
fold induction at 10 µM (Renilla; [3]): 1.5
fold induction at 40 µM (Renilla; [3]): 2.4
fold induction at 0.5 µM (HEK293 pGL4; [4]): 1.2
fold induction at 2 µM (HEK293 pGL4; [5]): 1.4
fold induction at 10 µM (HEK293 pGL4; [6]): 3.3
fold induction at 40 µM (HEK293 pGL4; [7]): 0.7
fold induction at 0.5 µM (HEK293 pGL4; [8]): 1
fold induction at 2 µM (HEK293 pGL4; [9]): 1.2
fold induction at 10 µM (HEK293 pGL4; [10]): 1.7
fold induction at 40 µM (HEK293 pGL4; [11]): 0.8
fold induction at 0.5 µM (HEK293 pGL4; [12]): 1.2
fold induction at 2 µM (HEK293 pGL4; [13]): 1.2
fold induction at 10 µM (HEK293 pGL4; [14]): 1.8
fold induction at 40 µM (HEK293 pGL4; [15]): 2.6
Firefly LBD, cmpd/DMSO (mean) (NR2F6 LBD; 0.5 uM): 1.1
Firefly LBD, cmpd/DMSO (mean) (NR2F6 LBD; 2 uM): 1.4
Firefly LBD, cmpd/DMSO (mean) (NR2F6 LBD; 10 uM): 3.0
Firefly LBD, cmpd/DMSO (mean) (NR2F6 LBD; 40 uM): 0.8
